What was measured:
[1] = metabolic stability in pooled human liver microsomes; details: pooled human liver microsomes, pH 7.4
Method: Metabolic degradation of a test compound was analyzed using pooled human liver microsomes and male rat liver microsomes, respectively, at 37° C.
After pre-incubation at 37° C. for 5 min, NADPH (5 mM, 60 µL) was added to initiate a reaction. A fixed volume of the reaction mixture (30 µL) was sampled into the solution at fixed time points (0, 5, 15, 30, 60 min) to quench the reaction. After centrifugation (4000 rpm, 15 min), the supernatant (100 µL) was mixed with distilled water (100 µL) and then subjected to LC-MS/MS analysis to test the amount of the compound. A half-life was calculated using a first-order reaction kinetic equation (Ct = C0 × e^-ket, T½ = Ln2/ke).

[2] = pharmacokinetic evaluation in rats after oral and intravenous administration; type: in vivo; details: Sprague-Dawley, rat, plasma, male SD rats, oral 10.0 mg/kg, intravenous 1.0 mg/kg, route and unit inferred
Method: Using rats as test animals, an LC/MS/MS method was used to determine the drug concentrations in plasma at different times after oral and intravenous administration of Compound 1a and Compound 14 in the rats. The pharmacokinetic behavior of the compounds of the present invention in rats was studied, and pharmacokinetic characteristics thereof were evaluated.
For each compound, 6 healthy adult SD (Sprague-Dawley) rats, male, were divided into oral and intravenous administration groups, 3 rats in each group, purchased from Shanghai SIPPR/BK Laboratory Animal Co., Ltd., animal production license number: SCXK (Shanghai) 2008-0016.
A specific amount of the drug was weighed and dissolved in 5% dimethylacetamide (DMA) + 5% polyethylene glycol-15 hydroxystearate (solutol) + 90% saline solution to prepare a 0.2 mg/mL solution.
The SD rats were fasted overnight and were administered orally and intravenously. The oral dose was 10.0 mg/kg, and the intravenous dose was 1.0 mg/kg.
Compound 1a and Compound 14 were administered orally and intravenously to the rats. At 0.083, 0.25, 0.5, 1, 2, 4, 8, and 24 hours after administration, 0.2 mL of blood was collected from the submandibular vein or other suitable blood vessels, placed in K2-EDTA tubes, and then stored on ice. Within one hour, the plasma was separated by centrifugation at 6,800 g for 6 minutes at 2-8° C., and stored at -80° C. for LC/MS/MS analysis. The rats were fed 4 hours after administration.

- half-life at 1 µM [1]: > 186 min
- half-life [2]: 155 ± 30 min
- Vd ([2]; read-out: Apparent volume of distribution): 7.09 ± 1.08 L/kg
- clearance ([2]; read-out: Clearance rate): 48.7 ± 5.01 mL/min/kg
SMILES: CSc1cccc2c(C(C)(C)NC(=O)[C@H]3[C@@H]4CNC[C@@H]43)nn(C)c12 [Compound 14, (1R,5S,6R)-N-(2-(1-Methyl-7-(Methylthio)-1H-Indazol-3-yl)Prop-2-yl)-3-Azabicyclo[3.1.0]Hexane-6-Carboxamide]

Source: patent publication US20230192683A1, “FUSED RING COMPOUNDS, PREPARATION METHOD THEREFOR, PHARMACEUTICAL COMPOSITIONS AND USE THEREOF” (priority 2020, published 2023)
